Structures are written as SMILES. Structures can show the parent of a compound that is named as a salt.

One series concerns reserpinic rigidity. Description: Antagonism against reserpinic rigidity (electromyogram provoked by dorsiflexion of the foot). The series is classed as in vivo, rats. Details: key to Antagonism against reserpine: expressed in an increasing number of + as a function of the dose in mg/Kg; ++: expressed in an increasing number of + as a function of the dose in mg/Kg; +++: expressed in an increasing number of + as a function of the dose in mg/Kg. The conditions noted are these: for Antagonism against reserpine: i.v., rats; for Antagonism against reserpinic rigidity, in words: results of Table I, Examples 5, 6 and 7 at a dose of 20 mg/kg. As for the experimental part: The antagonism of the tested products against reserpinic rigidity was determined in rats using the procedure of Jurna I: Arch. Pharmak. Exp. Path., Vol. 260 (1968), p. 80-88 and the electromyogram (EMG) provoked by a dorsiflexion of the foot was determined with electrodes placed on the muscles of the anterior loge of the hind foot of the animal. A dose of 10 mg/Kg of reserpine was administered intraveinously and 30 minutes later when the muscle hypertonicity was maximal, the tested product was administered intraveinously at a dose of 10 or 20 mg/Kg. The electromyogram responses were determined before and after the administration of the tested compound and were compared for their intensity and duration.

Series [1] in a line: Acute toxicity (50% lethal dose). The conditions noted are these: mouse, in vivo, ip, mice, mortality 48 hours after administration. The method, then: The 50% lethal dose (LD50) was determined for the products after intraperitoneal administration to mice and the mortality was determined 48 hours after the administration of the tested product.
Series [2] relates to nigrostriatal bundle (dopaminergic activity). Description: Rotating behavior after unilateral injury of nigrostriatal bundle, test (b): 6-hydroxydopamine lesion of substantia nigra. The series is classed as in vivo. The settings on record: i.p., male rats, 1 1/2 hours. As for the experimental part:
(§1) Among the animals having undergone a unilateral lesion of nigrostriatal bundle, the substances, having a dopaminergic activity induce a rotating behavior. The animals were male rats weighing about 250 g and female mice weighing about 22 g. The lesion was effected in test (a) in the right striatum of the male rats with a 2 mA anodic current for a duration of 30 seconds /Anden et al, Acta. Pharmacol. Toxicol., Vol. 24 (1966), p. 263-274/. The tested compounds were administered intraperitoneally to groups of 6 animals and they were individually placed in a rotometer which counted the number of rotations of each animal in two directions. Each test was continued for 11/2 hours.
In test (b) with the male rats, lesion was effected in the substantia nigra of each rat with 6-hydroxydopamine monohydrochloride at a dose of 20 μg per 4 μl of physiological serum containing 0.2 mg/ml of ascorbic acid by the method of Ungerstedt /Acta. physiol. scand., 1971 a, supp 367, p. 69-93/and the same conditions as in (a) were used.

For series [3] the test system is unchanged. Description: Rotating behavior after unilateral injury of nigrostriatal bundle, test (a): anodic lesion of right striatum. The series is classed as in vivo. The conditions noted are these: i.p., male rats, 1 1/2 hours. The method, then:
as §1

Series [4] has the same test system. Description: Rotating behavior after unilateral injury of nigrostriatal bundle, test (c): striatum lesion by aspiration. The series is classed as in vivo. The settings on record: 100 mg/kg, i.p., female mice, observed for an hour. As for the experimental part: as §1, with “Each test was continued for 11/2 hours.” left out
In test (c) with female mice, a lesion of the striatum was effected with a hypodermic needle with a diameter of 0.5 mm by aspiration under vacuum for 5 seconds with the method of Lotti /Life Science, Vol. 10 (1971) I, p. 781-789/.

For another series, the system named is carotid blood pressure. Description: Hypotensive activity (carotid blood pressure, anesthetized rats). The series is classed as in vivo, male rats, Sprague-Dawley S.P.F. The settings on record: i.v. The method, then: The hypotensive activity was determined on male rats of the Sprague-Dawley S.P.F. strain weighing about 300 g and anesthesized with nembutal at an intraveinous dose of 50 mg/kg. The test product was administered intraveinously into the jugular vein and the carotid blood pressure was measured before and after the administration of the tested compound. The variation in the arterial pressure after the administration of the tested compound as compared to the initial arterial pressure as well as the time necessary for the pressure to return to the initial value were determined.

The LD50 is the dose expected to kill half of the subjects tested. Take `CN1CCCC(c2ccc(O)c(O)c2)C1` (stereo not drawn) [Example 1, N-methyl-3-(3',4'-dihydroxyphenyl)-piperidine hydrobromide]: in the series on reserpinic rigidity (20 mg/kg), the Antagonism against reserpine result is reported as “++”. Also, in series [1], the LD50 at 48 h came out at 150 mg/kg.
On to `CC(=O)Oc1ccc(C2CCCN(C)C2)cc1OC(C)=O` (stereo not drawn) [Example 2, N-methyl-3-(3',4'-diacetoxyphenyl)-piperidine oxalate], for which, in the series with reserpinic rigidity (20 mg/kg), the Antagonism against reserpine entry is reported as “++”. Also, the median lethal dose (LD50) at 48 h in series [1] stood at 150 mg/kg.
With `CCN1CCCC(c2ccc(O)c(O)c2)C1` (stereo not drawn) [Example 3, N-ethyl-3-(3',4'-dihydroxyphenyl)-piperidine hydrobromide], in series [2] (25 mg/kg), the “rotations, test (b)” value is reported as “contralateral rotations”. The Antagonism against reserpine result with reserpinic rigidity (20 mg/kg) is reported as “+”. Moreover, the “rotations, test (a)” value in series [3] (25 mg/kg) was “ipsilateral rotations”. In series [1], this molecule showed an LD50 at 48 h of 150 mg/kg.
With `CCCN1CCCC(c2ccc(O)c(O)c2)C1` (stereo not drawn) [Example 4, N-propyl-3-(3',4'-dihydroxyphenyl)-piperidine hydrobromide], the Antagonism against reserpine entry with reserpinic rigidity (20 mg/kg) is “+”. This molecule registered a 50% lethal dose (LD50) at 48 h in series [1] of 150 mg/kg.
In the case of `Oc1ccc(C2CCCN(Cc3ccccc3)C2)cc1O` (stereo not drawn) [Example 5, N-benzyl-3-(3',4'-dihydroxyphenyl)-piperidine oxalate], the “rotation, test (c)” value in series [4] was “ipsilateral rotation”. In series [2] (25 mg/kg), the “rotations, test (b)” value is “contralateral rotations”. For the same molecule, the Antagonism against reserpine result in the series with reserpinic rigidity (20 mg/kg) was “+++”. In the series on reserpinic rigidity, the “Antagonism against reserpinic rigidity, in words” value (shortened to “Antagonism … in words”) is “very active”. Also, in series [3] (25 mg/kg), the “rotations, test (a)” value is given as “ipsilateral rotation”. Further, the median lethal dose (LD50) at 48 h in series [1] came out at 150 mg/kg.
As to `CC(=O)Oc1ccc(C2CCCN(Cc3ccccc3)C2)cc1OC(C)=O` (stereo not drawn) [Example 6, N-benzyl-3-(3',4'-diacetoxyphenyl)-piperidine oxalate], the “rotation, test (c)” value in series [4] is recorded as “ipsilateral rotation”. Also, the “rotations, test (b)” value in series [2] (25 mg/kg) is on record as “contralateral rotations”. For the same molecule, the duration of hypotension result in the series on carotid blood pressure (10 mg/kg, hypotension of 20 to 30%) is “more than one hour”. Further, the Antagonism against reserpine entry in the series with reserpinic rigidity (20 mg/kg) was “+++”. Further, in the series with reserpinic rigidity, the “Antagonism … in words” value is given as “very active”. In addition, the “rotations, test (a)” value in series [3] (25 mg/kg) is given as “ipsilateral rotation”. Further, the LD50 at 48 h in series [1] was 300 mg/kg.
Turning to `Oc1ccc(C2CCCN(CCc3ccccc3)C2)cc1O` (stereo not drawn) [Example 7, N-(β-phenylethyl)-3-(3',4'-dihydroxyphenyl)-piperidine fumarate], the “rotations, test (b)” value in series [2] (10 mg/kg) is “contralateral rotations”. For the same molecule, the duration of hypotension in the series with carotid blood pressure (0.1 mg/kg, hypotension of 5 to 10%) was 10 min; with carotid blood pressure (1 mg/kg, hypotension of 30%) it was “more than an hour”. Also, the hypotension in the series with carotid blood pressure (1 mg/kg) came out at 30%. Besides, the Antagonism against reserpine entry in the series on reserpinic rigidity (10 mg/kg) is given as “++”. In the series on reserpinic rigidity, the “Antagonism … in words” value is “very active”. For the same molecule, the “rotations, test (a)” value in series [3] (10 mg/kg) is given as “ipsilateral rotations”. Further, the LD50 at 48 h in series [1] was found to be 150 mg/kg.
For `CCCN1CCCC(c2ccc(OC(C)=O)c(OC(C)=O)c2)C1` (stereo not drawn) [Example 8, N-propyl-3-(3',4'-diacetoxyphenyl)-piperidine oxalate], the “rotations, test (b)” value in series [2] (25 mg/kg) is “contralateral rotations”. Also, in the series on reserpinic rigidity (20 mg/kg), the Antagonism against reserpine result was “++”. Also, the “rotations, test (a)” value in series [3] (25 mg/kg) is recorded as “ipsilateral rotations”. The LD50 at 48 h in series [1] amounted to 250 mg/kg.
Regarding `CC(C)N1CCCC(c2ccc(O)c(O)c2)C1` (stereo not drawn) [Example 9, N-isopropyl-3-(3',4'-dihydroxyphenyl)-piperidine hydrobromide], the Antagonism against reserpine result in the series on reserpinic rigidity (20 mg/kg) is “+”. Besides, the LD50 at 48 h in series [1] is 150 mg/kg.
On to `C=CCN1CCCC(c2ccc(O)c(O)c2)C1` (stereo not drawn) [Example 10, N-allyl-3-(3',4'-dihydroxyphenyl)-piperidine hydrobromide], for which the “rotations, test (b)” value in series [2] (25 mg/kg) is “contralateral rotations”. The same molecule had a 50% lethal dose (LD50) at 48 h in series [1] of 150 mg/kg.

(Values after patent publication US4072685A, “3-(3',4'-Disubstituted) phenyl piperidines” (Roussel Uclaf, priority 1975, dated 1978).)
